Source: PubChem BioAssay AID1963866 (Molecular Pharmacology Branch, DTP, NCI, 2024)

Test system: PDC KRAS tumor spheroids with HUVEC/MSC, viability
Assay: Anticancer human tumor 349418-098-R-PDC patient-derived lung adenocarcinoma cell line growth inhibition [KRAS2]
Settings: for IC50: curve of first compound; for viability, T/C: stronger effect = lower value; active = viability on the fitted dose curve at most 10% of control; inactive = the rest
Method in brief: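 Combination screen of spheroid viability in tumor-cell co-cultures with endothelial (HUVEC) and mesenchymal stem cell stroma. Each agent was tested in half-log dilutions, topping at clinical Cmax or at 10 microM without a known Cmax.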

[1] = second compound 0.1 µM, first compound 0.0316 µM
[2] = second compound 0.316 µM, first compound 0.0316 µM
[3] = second compound 1 µM, first compound 0.0316 µM
[4] = second compound 3.16 µM, first compound 0.0316 µM
[5] = second compound 10 µM, first compound 0.0316 µM
[6] = second compound 0.1 µM, first compound 0.1 µM
[7] = second compound 0.1 µM, first compound 0.316 µM
[8] = second compound 0.1 µM, first compound 1 µM
[9] = second compound 0.1 µM, first compound 3.16 µM
[10] = second compound 0.1 µM, first compound 10 µM
[11] = second compound 0.316 µM, first compound 0.1 µM
[12] = second compound 0.316 µM, first compound 0.316 µM
[13] = second compound 0.316 µM, first compound 1 µM
[14] = second compound 0.316 µM, first compound 3.16 µM
[15] = second compound 0.316 µM, first compound 10 µM
[16] = second compound 1 µM, first compound 0.1 µM
[17] = second compound 1 µM, first compound 0.316 µM
[18] = second compound 1 µM, first compound 1 µM
[19] = second compound 1 µM, first compound 3.16 µM
[20] = second compound 1 µM, first compound 10 µM
[21] = second compound 3.16 µM, first compound 0.1 µM
[22] = second compound 3.16 µM, first compound 0.316 µM
[23] = second compound 3.16 µM, first compound 1 µM
[24] = second compound 3.16 µM, first compound 3.16 µM
[25] = second compound 3.16 µM, first compound 10 µM
[26] = second compound 10 µM, first compound 0.1 µM
[27] = second compound 10 µM, first compound 0.316 µM
[28] = second compound 10 µM, first compound 1 µM
[29] = second compound 10 µM, first compound 3.16 µM
[30] = second compound 10 µM, first compound 10 µM
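Note: spheroids exposed to compounds for seven days before readout.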

CC(=O)Nc1cccc(-n2c(=O)n(C3CC3)c(=O)c3c(Nc4ccc(I)cc4F)n(C)c(=O)c(C)c32)c1 + COc1cc2nc(C)nc(NC(C)c3cc(N)cc(C(F)(F)F)c3)c2cc1OC1CCOC1
< 0.1 nM: IC50 (second compound 0.1 µM) | IC50 (second compound 0.316 µM) | IC50 (second compound 1 µM) | IC50 (second compound 3.16 µM) | IC50 (second compound 10 µM)
active: viability, T/C (second compound 0.1 µM, first compound 0.001 µM) 8.13% | viability, T/C (second compound 0.1 µM, first compound 0.00316 µM) 7.1% | viability, T/C (second compound 0.1 µM, first compound 0.01 µM) 6.58% | viability, T/C [1] 5.51% | viability, T/C (second compound 0.316 µM, first compound 0.001 µM) 8.06% | viability, T/C (second compound 0.316 µM, first compound 0.00316 µM) 7.58% | viability, T/C (second compound 0.316 µM, first compound 0.01 µM) 6.23% | viability, T/C [2] 4.76% | viability, T/C (second compound 1 µM, first compound 0.000316 µM) 8.51% | viability, T/C (second compound 1 µM, first compound 0.001 µM) 7.77% | viability, T/C (second compound 1 µM, first compound 0.00316 µM) 6.73% | viability, T/C (second compound 1 µM, first compound 0.01 µM) 5.93% | viability, T/C [3] 4.86% | viability, T/C (second compound 3.16 µM, first compound 0.001 µM) 8.06% | viability, T/C (second compound 3.16 µM, first compound 0.00316 µM) 5.6% | viability, T/C (second compound 3.16 µM, first compound 0.01 µM) 5.05% | viability, T/C [4] 4.65% | viability, T/C (second compound 10 µM, first compound 0.0001 µM) 5.99% | viability, T/C (second compound 10 µM, first compound 0.000316 µM) 4.73% | viability, T/C (second compound 10 µM, first compound 0.001 µM) 4.46% | viability, T/C (second compound 10 µM, first compound 0.00316 µM) 3.12% | viability, T/C (second compound 10 µM, first compound 0.01 µM) 4.29% | viability, T/C [5] 3.2%
inactive: viability, T/C (second compound 0.1 µM, first compound 0.0001 µM) 26.5% | viability, T/C (second compound 0.1 µM, first compound 0.000316 µM) 12.7% | viability, T/C (second compound 0.316 µM, first compound 0.0001 µM) 19.8% | viability, T/C (second compound 0.316 µM, first compound 0.000316 µM) 10.8% | viability, T/C (second compound 1 µM, first compound 0.0001 µM) 18% | viability, T/C (second compound 3.16 µM, first compound 0.0001 µM) 14.4% | viability, T/C (second compound 3.16 µM, first compound 0.000316 µM) 11%

COC(=O)c1ccc2c(C(=Nc3ccc(N(C)C(=O)CN4CCN(C)CC4)cc3)c3ccccc3)c(O)[nH]c2c1 + COc1cc2nc(C)nc(NC(C)c3cc(N)cc(C(F)(F)F)c3)c2cc1OC1CCOC1
< 31.6 nM: IC50 (second compound 10 µM)
1370 nM: IC50 (second compound 1 µM)
inactive: viability, T/C [1] 113% | viability, T/C [6] 97.2% | viability, T/C [7] 76.1% | viability, T/C [8] 78.8% | viability, T/C [9] 8.68% | viability, T/C [10] 15.6% | viability, T/C [2] 91.2% | viability, T/C [11] 121% | viability, T/C [12] 83% | viability, T/C [13] 56.8% | viability, T/C [14] 7.24% | viability, T/C [3] 88.9% | viability, T/C [16] 103% | viability, T/C [17] 90.5% | viability, T/C [18] 64.7% | viability, T/C [19] 9.57% | viability, T/C [20] 11.1% | viability, T/C [4] 66.5% | viability, T/C [21] 92.8% | viability, T/C [22] 78.2% | viability, T/C [23] 25.8% | viability, T/C [5] 41.8% | viability, T/C [26] 28% | viability, T/C [27] 36.7% | viability, T/C [28] 11.3%
1640 nM: IC50 (second compound 0.1 µM)
active: viability, T/C [15] 13.5% | viability, T/C [24] 5.92% | viability, T/C [25] 0.55% | viability, T/C [29] 1.15% | viability, T/C [30] 0.2%
587 nM: IC50 (second compound 3.16 µM)
1050 nM: IC50 (second compound 0.316 µM)

COc1cc(Nc2ncc3c(n2)-c2ccc(Cl)cc2C(c2c(F)cccc2OC)=NC3)ccc1C(=O)O + COc1cc2nc(C)nc(NC(C)c3cc(N)cc(C(F)(F)F)c3)c2cc1OC1CCOC1
< 31.6 nM: IC50 (second compound 1 µM) | IC50 (second compound 3.16 µM) | IC50 (second compound 10 µM)
47.4 nM: IC50 (second compound 0.1 µM)
36 nM: IC50 (second compound 0.316 µM)
active: viability, T/C [30] 6%
inactive: viability, T/C [1] 60% | viability, T/C [6] 30.7% | viability, T/C [7] 31.8% | viability, T/C [8] 34.2% | viability, T/C [9] 23.3% | viability, T/C [10] 23.8% | viability, T/C [2] 52.8% | viability, T/C [11] 27.4% | viability, T/C [12] 30.8% | viability, T/C [13] 26.5% | viability, T/C [14] 25.4% | viability, T/C [15] 23.4% | viability, T/C [3] 48.5% | viability, T/C [16] 31.2% | viability, T/C [17] 36.2% | viability, T/C [18] 33% | viability, T/C [19] 28.3% | viability, T/C [20] 20.5% | viability, T/C [4] 45.8% | viability, T/C [21] 29.4% | viability, T/C [22] 28% | viability, T/C [23] 25.5% | viability, T/C [24] 18.4% | viability, T/C [25] 19.1% | viability, T/C [5] 16.7% | viability, T/C [26] 22% | viability, T/C [27] 12.4% | viability, T/C [28] 9.24% | viability, T/C [29] 16.1%
